# From paper PMC2843910 (Biochemical pharmacology, 2008)
# Target: T1, ABCG2 (Homo sapiens, UniProt Q9UNQ0)
# T1 sequence (Q9UNQ0 1-655): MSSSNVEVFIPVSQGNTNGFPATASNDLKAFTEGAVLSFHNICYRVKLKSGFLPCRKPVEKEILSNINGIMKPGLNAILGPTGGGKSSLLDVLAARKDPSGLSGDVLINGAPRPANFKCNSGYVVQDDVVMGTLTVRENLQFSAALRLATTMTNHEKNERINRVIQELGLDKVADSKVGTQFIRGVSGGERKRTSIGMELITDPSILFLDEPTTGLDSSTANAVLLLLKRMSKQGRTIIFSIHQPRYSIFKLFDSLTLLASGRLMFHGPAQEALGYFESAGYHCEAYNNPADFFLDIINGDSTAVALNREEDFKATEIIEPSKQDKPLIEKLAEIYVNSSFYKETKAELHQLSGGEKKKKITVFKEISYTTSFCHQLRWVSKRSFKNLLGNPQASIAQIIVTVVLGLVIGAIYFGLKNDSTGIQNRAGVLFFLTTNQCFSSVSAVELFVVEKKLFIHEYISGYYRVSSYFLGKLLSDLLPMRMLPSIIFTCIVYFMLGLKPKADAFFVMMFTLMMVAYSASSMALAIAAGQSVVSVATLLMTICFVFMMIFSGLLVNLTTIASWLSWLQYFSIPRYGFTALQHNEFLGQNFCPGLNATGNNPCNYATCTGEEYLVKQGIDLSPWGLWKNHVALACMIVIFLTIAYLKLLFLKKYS
# Type: cell-based
structure (smiles),measurement,value
CN(Cc1cnc2nc(N)nc(N)c2n1)c1ccc(C(=O)N[C@@H](CCC(=O)O)C(=O)O)cc1 [[^3H]-methotrexate],ATP-dependent uptake into membrane vesicles (rapid filtration),inhibited the rates of both methotrexate and E217βG uptake in the membrane vesicles of ABCG2-482-R5
